Experimental data: PubChem BioAssay AID651586 (Broad Institute, 2012)
Several values for one entry are separate records, joined by “and”; a condition that tells them apart may be missing. Identical values can stand only once.

Tested on: SK-MEL-5 viability, CellTiter-Glo ATP luminescence, 24 h
Experiment: SK-MEL-5 parental cell viability reduction, dose response, orthogonal assay for MITF inhibitor project, CellTiter-Glo luminescence, dry powder, set 8 (AID 651586)

## O=C1C=C(Nc2ccccc2)C(=O)c2ccccc21
  IC50: 2.56 µM and 6.21 µM
